#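 Compound exposure: 48 hours, 5 concentrations, 96-well plates. The concentration for 50% growth inhibition is given as GI50.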 Active and inactive are the calls of the source. No stated cut-off is given here; in the data, active = GI50 up to about 1.1 µM and inactive = higher.
# Tests used:
# Experiment in all cases: DTP human tumour cell line panel, 48 h
# [1] = test system: 786-0
# [2] = test system: A498
# [3] = test system: A549
# [4] = test system: ACHN
# [5] = test system: CCRF-CEM
# [6] = test system: COLO 205
# [7] = test system: DLD-1
# [8] = test system: DMS-114
# [9] = test system: DMS-273
# [10] = test system: EKVX
# [11] = test system: HCC 2998
# [12] = test system: HCT-116
# [13] = test system: HCT-15
# [14] = test system: HL-60
# [15] = test system: HOP-18
# [16] = test system: HOP-62
# [17] = test system: HOP-92
# [18] = test system: HT-29
# [19] = test system: IGROV-1
# [20] = test system: K562
# [21] = test system: KM-20L2
# [22] = test system: KM12
# [23] = test system: LOX IMVI
# [24] = test system: LXFL 529
# [25] = test system: M14
# [26] = test system: M19-MEL
# [27] = test system: MOLT-4
# [28] = test system: Malme-3M
# [29] = test system: NCI-H23
# [30] = test system: NCI-H460
# [31] = test system: NCI-H522
# [32] = test system: OVCAR-3
# [33] = test system: OVCAR-4
# [34] = test system: OVCAR-5
# [35] = test system: OVCAR-8
# [36] = test system: RPMI-8226
# [37] = test system: RXF 393
# [38] = test system: SF-268
# [39] = test system: SF-295
# [40] = test system: SK-MEL-28
# [41] = test system: SK-MEL-2
# [42] = test system: SK-MEL-5
# [43] = test system: SK-OV-3
# [44] = test system: SN12C
# [45] = test system: SNB-19
# [46] = test system: SNB-75
# [47] = test system: SR
# [48] = test system: SW-620
# [49] = test system: TK-10
# [50] = test system: U-251
# [51] = test system: UACC-257
# [52] = test system: UACC-62
# [53] = test system: UO-31
# [54] = test system: XF498
# [55] = test system: NCI-H226
# [56] = test system: SF-539
# [57] = test system: SNB-78
compound,measurement,setting,value
C1CCC(N=C2N(C3CCCCC3)C(=NC3CCCCC3)N2C2CCCCC2)CC1,GI50,[1],> 100 µM (inactive)
same,GI50,[2],> 10 µM (inactive)
same,GI50,[3],> 100 µM (inactive)
same,GI50,[4],> 100 µM (inactive)
same,GI50,[5],> 100 µM (inactive)
same,GI50,[6],> 100 µM (inactive)
same,GI50,[7],> 100 µM (inactive)
same,GI50,[8],> 100 µM (inactive)
same,GI50,[9],> 100 µM (inactive)
same,GI50,[10],> 100 µM (inactive)
same,GI50,[11],> 100 µM (inactive)
same,GI50,[12],> 100 µM (inactive)
same,GI50,[13],> 100 µM
same,GI50,[14],> 100 µM (inactive)
same,GI50,[15],> 100 µM (inactive)
same,GI50,[16],> 100 µM (inactive)
same,GI50,[17],30.3 µM (inactive)
same,GI50,[18],> 100 µM (inactive)
same,GI50,[19],> 100 µM (inactive)
same,GI50,[20],> 100 µM (inactive)
same,GI50,[21],> 100 µM (inactive)
same,GI50,[22],> 100 µM (inactive)
same,GI50,[23],> 100 µM (inactive)
same,GI50,[24],> 100 µM (inactive)
same,GI50,[25],> 100 µM (inactive)
same,GI50,[26],> 100 µM (inactive)
same,GI50,[27],> 100 µM (inactive)
same,GI50,[28],> 100 µM (inactive)
same,GI50,[29],> 100 µM (inactive)
same,GI50,[30],> 100 µM (inactive)
same,GI50,[31],> 100 µM (inactive)
same,GI50,[32],> 100 µM (inactive)
same,GI50,[33],> 100 µM (inactive)
same,GI50,[34],> 100 µM (inactive)
same,GI50,[35],> 100 µM (inactive)
same,GI50,[36],> 100 µM (inactive)
same,GI50,[37],> 100 µM (inactive)
same,GI50,[38],> 100 µM (inactive)
same,GI50,[39],> 100 µM (inactive)
same,GI50,[40],> 100 µM (inactive)
same,GI50,[41],> 100 µM (inactive)
same,GI50,[42],> 100 µM (inactive)
same,GI50,[43],> 100 µM (inactive)
same,GI50,[44],> 100 µM (inactive)
same,GI50,[45],> 100 µM (inactive)
same,GI50,[46],20.9 µM (inactive)
same,GI50,[47],> 100 µM (inactive)
same,GI50,[48],> 100 µM (inactive)
same,GI50,[49],> 100 µM (inactive)
same,GI50,[50],> 100 µM (inactive)
same,GI50,[51],> 100 µM (inactive)
same,GI50,[52],> 100 µM (inactive)
same,GI50,[53],> 100 µM (inactive)
same,GI50,[54],> 100 µM (inactive)
COc1cc(C2C(Cl)C(=O)N2NC(=O)c2ccccc2O)ccc1O (centres undefined),GI50,[2],45.9 µM (inactive)
same,GI50,[3],> 100 µM (inactive)
same,GI50,[4],> 100 µM (inactive)
same,GI50,[5],> 100 µM (inactive)
same,GI50,[7],> 100 µM (inactive)
same,GI50,[8],> 100 µM (inactive)
same,GI50,[9],> 100 µM (inactive)
same,GI50,[11],> 100 µM (inactive)
same,GI50,[12],> 100 µM (inactive)
same,GI50,[13],> 100 µM
same,GI50,[14],> 100 µM (inactive)
same,GI50,[15],34.8 µM (inactive)
same,GI50,[18],> 100 µM (inactive)
same,GI50,[19],> 100 µM (inactive)
same,GI50,[20],> 100 µM (inactive)
same,GI50,[22],> 100 µM (inactive)
same,GI50,[23],> 100 µM (inactive)
same,GI50,[24],> 100 µM (inactive)
same,GI50,[25],> 100 µM (inactive)
same,GI50,[26],> 100 µM (inactive)
same,GI50,[27],> 100 µM (inactive)
same,GI50,[28],> 100 µM (inactive)
same,GI50,[55],> 100 µM (inactive)
same,GI50,[29],> 100 µM (inactive)
same,GI50,[30],> 100 µM (inactive)
same,GI50,[31],> 100 µM (inactive)
same,GI50,[32],> 100 µM (inactive)
same,GI50,[35],70.8 µM (inactive)
same,GI50,[37],0.0612 µM (active)
same,GI50,[38],> 100 µM (inactive)
same,GI50,[39],> 100 µM (inactive)
same,GI50,[56],> 100 µM (inactive)
same,GI50,[40],> 100 µM (inactive)
same,GI50,[41],> 100 µM (inactive)
same,GI50,[42],> 100 µM (inactive)
same,GI50,[43],> 100 µM (inactive)
same,GI50,[44],> 100 µM (inactive)
same,GI50,[45],> 100 µM (inactive)
same,GI50,[57],> 100 µM (inactive)
same,GI50,[49],> 100 µM (inactive)
same,GI50,[50],> 100 µM (inactive)
same,GI50,[51],> 100 µM (inactive)
same,GI50,[52],> 100 µM (inactive)
same,GI50,[53],> 100 µM (inactive)
same,GI50,[54],> 100 µM (inactive)

# Source: ChEMBL document CHEMBL1201862, “PubChem BioAssay data set” (2004)
